Test results as given in patent publication US8026217B2, “Compositions and methods for treating neural anoxia and spreading depression” (Florida Atlantic University, priority 2007, dated 2011).
Entries after “also recorded” stand apart in the source; their conditions may differ. Where two headings read alike, the source gives them in different places.

Tests used:
mammals (mouse or rat) = test: Spreading depression in mammals; format: in vivo; conditions: expected
Excerpt: The pharmacological effects of a PDE5 inhibitor, 8-bromo-GMP, KT5823, and Cantharidin during spreading depression are examined in mammals (mouse or rat).

[1] = tested on: adult Drosophila melanogaster; format: in vivo; conditions: sitter adults, volatilized from DMSO 1 hr, 1 mM KT5823, 1 mM Cantharidin, 200 mM DCA, 10 mM 8-Bromo cGMP, 10 mM T-0156, versus DMSO sham
Protocol: FIG. 9 is a diagram illustrating in vivo treatment of adult Drosophila melanogaster with pharmacological agents. […] Adult sitters were exposed to various drugs known to target components of the PKG pathway (FIG. 8A). These drugs included: 10 mM T0156, a cGMP-specific phosphodiesterase-5 inhibitor, 10 mM 8-Bromo-cGMP, a PKG activator, 1 mM KT5823, a PKG inhibitor, 1 mM Cantharidin, a PP2A inhibitor, and 200 mM DCA, a K^+ channel activator. All drugs were solubilized in dimethyl sulfoxide (DMSO), where flies treated with only DMSO were used as sham controls. […] 10 μL of drug solution was applied to a crushed Kim wipe at the bottom of each 10 mL test vial. An additional Kim wipe was crushed over top of this to prevent direct contact between the fly and solution. 10 flies were then placed in the vial which was capped with a semi-permeable buzz-stopper, covered with a cut-out finger of a large latex glove to prevent chemical vapours from escaping, and incubated in the dark. The flies were subjected to the drug for 1 hr prior to each behavioural assay. In the drug combination experiments, 20 uL of DMSO was used as a control sham, and combinations of two pharmacological treatments were added as two separate 10 uL aliquots.
Whether or not fly PKG levels could be manipulated in vivo using a technique that uses volatilization of pharmacological agents was next examined. The role of these targets in vivo using sitter flies was examined by depositing pharmacological agents dissolved in DMSO on a cellulose tissue, and allowing them to volatize over minutes in an air tight vial at room temperature (FIG. 9). Adults were exposed to the volatilized compound for one hour in the dark and then assayed for locomotory resilience to acute hypoxia. Control sham animals (FIG. 7A) were treated with only DMSO. Compounds were chosen to target different components of the cGMP pathway (FIG. 8A) in tracheal smooth muscle and Chinese hamster ovary cells, where cGMP activates PKG, thereby activating PP2A, which then de-phosphorylates K^+ channels. The hypothesis that inhibition of this pathway would result in an increase in whole cell K^+ channel conductance, thereby leading to increased resilience to anoxic coma onset, was tested.
Locomotory Tolerance Assay during Acute Hypoxia: Ten flies (separated into males or females) from each of the three strains (rover [for^R], sitter [for^S] and for^s2) were selected and placed in three separate vials with food at least 24 hours before each experiment. At the time of the experiment, flies were emptied into 10 mL empty test vials covered with permeable sponge caps of equivalent thickness, allowing for consistent gas exchange. These test vials were then placed into a 600 mL beaker which was covered with parafilm, creating a closed chamber with an escape hole (1 cm diameter). The parafilm top was punctured with a needle connected to a gas tank (by a plastic hose), through which the inert gas argon was expelled. […] The needle tip was fastened to the bottom of the beaker and inserted into a larger sponge of similar texture to the vial sponge caps to ensure that gas expelled from the needle was dispersed equally throughout the beaker. Also, to ensure that all test vial positions in the beaker received equal gas flow, test vial positions were alternated every trial to reduce variability.
The experiment required exposing the test vials with 10 flies in the container to pure argon gas expelled from the tank at a flow rate of 600 cc/min+/−5%. Time of behavioural failure was recorded by observing the fly undergo a seizure, which was quickly followed by an anoxic coma.

PKG = PKG enzyme activity assay on heads of treated flies; format: biochemical, Drosophila melanogaster; conditions: heads of sitter flies treated in vivo with volatilized agent; versus sham control
Protocol: PKG enzyme activity assays: PKG enzyme activity assays were conducted according to the procedure outlined in Kaun et al. (J Exp Biol. 210(Pt 20):3547-3558, 2007). Adult Drosophila were decapitated and the heads were homogenized in 25 mM 1-1 Tris (pH 7.4), 1 mM 1-1 EDTA, 2 mM 1-1 EGTA, 5 mM 1-1 β-mercaptoethanol, 0.05% Triton X-100 and protease inhibitor solution (Roche Diagnostics). Following microcentrifugation for 5 min, the supernatant was removed and those supernatants containing equal amounts of total protein were examined for PKG enzyme activity. The reaction mixture contained the following substances: 40 mM 1-1 Tris-HCl (pH 7.4), 20 mM 1-1 magnesium acetate, 0.2 mM 1-1 [γ^32P]ATP (500-1000 c.p.m. pmol−1), […] heptapeptide (RKRSRAE), (SEQ ID NO:6), (3 mM 1-1 cGMP and a highly specific inhibitor of cAMP-dependent protein kinase. The next step of the procedure involved incubating the reaction mixtures at a temperature of 30° C. for 10 min, followed by ending the reaction by spotting 70 μl of the reaction mixture onto Whatman P-81 filters. To remove any unreacted [γ^32P]ATP, these spots were then soaked with 75 mM 1-1 H3PO4 for 5 min and washed three times with 75 mM 1-1 H3PO4. Before quantifying enzyme activity, filters were rinsed with 100% ethanol and air dried. To calculate PKG enzyme activity, counts were taken in a Wallac 1409 Liquid Scintillation Counter using universal scintillation cocktail (ICN). PKG activity was presented in the figures as pmol of ^32P incorporated into the substrate min−1 mg−1 protein.

zebrafish = test: Zebrafish behaviour during acute anoxia; format: in vivo; conditions: whole zebrafish in anoxic water post-treatment; expected
Excerpt: Vertebrate (zebrafish) behaviour is examined during acute anoxia. Whole zebrafish are exposed to anoxic water post-treatment with a PDE5 inhibitor, 8-bromo-GMP, KT5823, and Cantharidin. The time until the animal knocks out during anoxia is monitored.

respiratory brain slices = test: Neural function in respiratory brain slices during sodium azide-induced anoxia; design: species or system mouse or rat; conditions: expected
Excerpt: Neural function in mammals (mouse or rat) is examined pharmacologically during acute anoxia in respiratory brain slices via sodium azide, which chemically induces anoxia. Following administration of the sodium azide, the time until neural failure is monitored. This is done in the presence of a PDE5 inhibitor, 8-bromo-GMP, KT5823, and Cantharidin.

[2] = tested on: metathoracic ganglion of the locust; test: SD-like events evoked by high-potassium (KCl 150 mM) injection into the locust metathoracic ganglion; format: in vivo, Locusta migratoria; conditions: for time to recover ventilatory central pattern generator (vCPG) function following SD: Example 5, NO synthase inhibitor and NO donors, FIG. 4G
Excerpt: CSD is increasingly accepted as a primary causative agent for migraine, particularly migraine with aura. The cellular mechanisms underlying stroke, seizures and migraine are not exclusive to mammals. Using the locust (Locusta migratoria), a proven model for examining the effects of heat stress on CNS activity, a rapid rise in extracellular potassium ([K^+]o) during anoxia/hypoxia, extreme heat, and ouabain exposure was monitored. This phenomenon has all the characteristics of SD in the neocortex of mammals. Since the physiological mechanisms observed in locust SD-like events are similar to that of mammals, findings in this insect model are predictably transferable to mammals, including humans. In the locust, model SD-like events were triggered in the CNS by injecting small volumes of saline containing high levels of potassium ions (KCl at 150 mM instead of the nominal resting level of 10 mM) into the metathoracic ganglion. Potassium-sensitive microelectrodes were used to measure SD generated by KCl injections, while manipulating the PKG pathway.
This tissue response is characterised by a transient surge and subsequent clearance of potassium ions in the extracellular space ([K^+]o). During SD-like events ventilatory motor activity ceases. This was monitored using an electromyographic electrode positioned on an abdominal muscle used for ventilation (Ventilatory EMG). Upon restoration of the potassium ion gradient the neural activity recovered and preparations began to ventilate again.
The first injection was used as a control. Following the first injection, animals were allowed 10 minutes of perfusion with standard locust saline before treatment with bath applications of selected drugs (i.e. KT5823, T-0156). All drugs were dissolved in a minimum amount of DMSO before further dilution with standard locust saline to a concentration of 10^−5M and were superfused over the metathoracic ganglion for 10 minutes before the second injection. A total of 20 minutes elapsed between the first and second injection in all experiments. As shown in Figure (Bi), duration at half the maximum amplitude was used to characterize the severity of SD-like events. A significant increase was observed following the second injection when compared to the first in control animals. […] Heat shock (HS) preconditioning reduced SD duration evoked by the first and second injections. […] Numbers in the histogram bars indicate number of preparations tested. Asterisks indicate statistically significant differences between the first and second injection ([…]).
Motor pattern activity was not measured for T-0156/Cantharidin treatments. […] Figure (Cii) illustrates the drug effects by showing the percentage difference in rhythm recovery time (second injection relative to first injection).
Single SD events were evoked by injection of saline (50 nL) containing elevated potassium chloride (150 mM vs. 10 mM) directly into the metathoracic ganglion. […] During SD, ventilatory motor activity monitored electromyographically (EMG) ceased and recovered upon restoration of the potassium ion gradient. The duration of the [K^+]o wave at half its maximal amplitude and the time from failure of motor patterning to the recovery of a ventilatory rhythm were measured. […] Numbers in brackets represent sample size.
As in Example 3, SD events were evoked by injection of saline (50 nL) containing elevated potassium chloride (150 mM vs. 10 mM) directly into the metathoracic ganglion of locust preparations.

NO-producing cells = test: DAF2-DA staining of NO-producing cells in locust metathoracic ganglion; format: cell-based, Locusta migratoria; conditions: 100 μM; 3 minutes at 35° C.
Protocol: The pattern of cell staining was similar to that of NOS staining in Schistocerca gregaria and L. migratoria (Müller and Bicker, The Journal of Neuroscience 14:7521-7528, 1994; Bullerjahn and Pflüger, Zoology 106:3-17, 2003). The scale in the Figure is 500 μm. FIGS. 4B and 4C show fluorescing cell bodies at room temperature (20° C.) (4B) and immediately following exposure to heat (35° C.) (4C) (scale for both Figures is 50 μm). The change in fluorescence following exposure to heat was quantified as shown in FIG. 4D (3 minutes at 35° C., shown by bar above x-axis). The difference between cell body fluorescence and background more than doubled immediately following exposure to heat (t=5 minutes). […] Fluorescence was measured from the brightest 3 cells from each ganglion. [Sample sizes: Control, n=7; LNAME, n=4; and No heat, n=3. Asterisks indicate significant differences of control from LNAME and No heat groups (Tukey, p<0.05).]

CC12C(=O)OC(=O)C1(C)C1CCC2O1 (centres unmarked) [Cantharidin, Hexahydro-3a,7a-dimethyl-4,7-epoxyisobenzofuran-1,3-dione]
SD-like events and neural function (mammals (mouse or rat)): neuroprotection and reduces SD-like events thereby prolonging neural function | time to anoxic coma onset during acute hypoxia, single agents [1]: demonstrated significant resilience to anoxic coma | head PKG enzyme activity (PKG): PKG activity levels did not differ; also recorded: showed no significant effects on PKG enzyme activity levels compared to sham controls | time until the animal knocks out during anoxia (zebrafish): neuroprotection and prolonged behaviour when subject to anoxia | time until neural failure (respiratory brain slices): neuroprotection and prolonged neural function when subject to anoxia

COC(=O)[C@@H](N)CCCNC(=N)N[N+](=O)[O-] [LNAME, N(G)-nitro-L-arginine methyl ester]
time to recover ventilatory central pattern generator (vCPG) function following SD [2]: dramatically reduced the length of time taken to recover ventilatory central pattern generator (vCPG) function following SD | DAF2-DA cell body fluorescence in response to heat stress (NO-producing cells): prevented the increased fluorescence in response to heat stress

CC(=O)N[C@@H](C(=O)O)C(C)(C)SN=O [SNAP, S-nitroso-N-acetyl-D-penicillamine]
time to recover ventilatory central pattern generator (vCPG) function following SD [2]: did not exacerbate recovery times beyond that of control preparation times

N[C@@H](CCC(=O)N[C@@H](CSN=O)C(=O)NCC(=O)O)C(=O)O [SNOG, S-nitrosoglutathione]
time to recover ventilatory central pattern generator (vCPG) function following SD [2]: did not exacerbate recovery times beyond that of control preparation times

COC(=O)c1c(-c2cc(OC)c(OC)c(OC)c2)c2ccnc(OCc3ncccn3)c2c(=O)n1Cc1ccnc(C)c1 [T-0156]
length of time to recover ventilatory motor pattern activity after SD ([2]; Example 1, bath application 10^-5 M for 10 minutes before second KCl injection): took significantly longer to recover motor pattern activity after the second injection | recovery time of ventilatory rhythm, second event versus first ([2]; Example 3, drug applied for 10 minutes prior to second injection, FIG. 3D): The recovery time was increased | time to anoxic coma onset during acute hypoxia, single agents [1]: exhibited significant sensitivity to anoxic coma | time to anoxic coma onset during acute hypoxia, single agents ([1]; listed as T0156): increased sensitivity to acute hypoxia | head PKG enzyme activity (PKG): significant increase in PKG activity levels compared with sitter control shams; also recorded: demonstrated significant effects compared to that of the sham control
